{"source": "patent US9994533B2", "about": "“Method of preparing ATG's analogue, and the application of ATG and it's analogue” (Longhua Hospital Shanghai University of Traditional Chinese …, priority 2016, dated 2018)", "key": {"[1]": {"test_system": "NOX4 gene", "assay": "NOX4 mRNA expression in glomeruli of STZ-eNOS−/− mice (RT-PCR)", "format": "in vivo", "details": "FIG. 5", "source_text": "The detection method of Western Blot and mRNA used in the present embodiment is a detection method commonly used by person skilled in the art, and the specific detection method is described in “Molecular Biology Laboratory Manual” (People's Military Medical Press, published in 2011 Jun. 1). Further, the mRNA of the glomeruli was extracted and subjected to RT-PCR."}, "[2]": {"target": "T1, Serine/threonine-protein phosphatase 2A catalytic subunit beta isoform (Homo sapiens, UniProt P62714)", "T1 construct": "endogenous in cells; host or cells: 293T", "T1 sequence (P62714 whole entry, canonical isoform)": "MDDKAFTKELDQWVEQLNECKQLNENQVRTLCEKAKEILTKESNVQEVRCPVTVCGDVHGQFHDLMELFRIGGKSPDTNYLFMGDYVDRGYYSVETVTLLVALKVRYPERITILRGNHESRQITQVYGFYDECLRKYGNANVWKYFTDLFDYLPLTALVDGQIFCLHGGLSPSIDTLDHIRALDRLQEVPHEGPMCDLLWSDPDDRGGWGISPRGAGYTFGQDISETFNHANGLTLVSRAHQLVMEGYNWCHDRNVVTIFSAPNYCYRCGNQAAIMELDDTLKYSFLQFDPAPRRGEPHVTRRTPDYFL", "assay": "DARTS mass spectrometry of 293T lysate after ATG", "format": "binding", "experimental": "(§1) 293T cells were digested with M-PER mammalian protein extraction buffer (78501 ThermoFisher) and phosphatase inhibitor (50 mM NaF, 10 mM β-glycerophosphate, 5 mM sodium pyrophosphate, 2 mM Na3VO4); and the protein concentration is determined by Bradford method (500-0006 Bio-rad). ATG was either added or not in the cell lysate. If added, the concentration of ATG was 300 μM. The cells were incubated at room temperature for 1 h. The cells were then lysed by incubating for 20 minutes at room temperature with different concentrations of pronase at 1:1000 (10165921001, Roche). The two groups of lysates are subjected to mass spectrometry and then compared.\n(§2) Furthermore, since the content of PP2A in cells is very low in the normal state, it is considered that the binding ratio of ATG and PP2A is high."}, "[3]": {"target": "T2, Tubulin beta-6 chain (Homo sapiens, UniProt Q9BUF5)", "T2 construct": "endogenous in cells; host or cells: 293T", "T2 sequence (Q9BUF5 whole entry)": "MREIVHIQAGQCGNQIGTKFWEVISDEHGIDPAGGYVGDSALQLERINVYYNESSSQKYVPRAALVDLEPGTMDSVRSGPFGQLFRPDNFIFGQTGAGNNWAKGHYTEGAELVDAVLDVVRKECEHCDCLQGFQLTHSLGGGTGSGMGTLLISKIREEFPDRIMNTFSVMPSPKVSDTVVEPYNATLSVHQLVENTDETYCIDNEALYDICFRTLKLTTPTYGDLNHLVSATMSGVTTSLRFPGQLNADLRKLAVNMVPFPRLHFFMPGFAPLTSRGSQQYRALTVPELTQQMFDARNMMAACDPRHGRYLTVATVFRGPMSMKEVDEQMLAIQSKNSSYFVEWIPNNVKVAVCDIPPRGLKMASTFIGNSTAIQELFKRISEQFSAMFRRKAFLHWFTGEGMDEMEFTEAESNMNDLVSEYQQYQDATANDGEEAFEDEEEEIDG", "T2 sequence (P68363 whole entry partner)": "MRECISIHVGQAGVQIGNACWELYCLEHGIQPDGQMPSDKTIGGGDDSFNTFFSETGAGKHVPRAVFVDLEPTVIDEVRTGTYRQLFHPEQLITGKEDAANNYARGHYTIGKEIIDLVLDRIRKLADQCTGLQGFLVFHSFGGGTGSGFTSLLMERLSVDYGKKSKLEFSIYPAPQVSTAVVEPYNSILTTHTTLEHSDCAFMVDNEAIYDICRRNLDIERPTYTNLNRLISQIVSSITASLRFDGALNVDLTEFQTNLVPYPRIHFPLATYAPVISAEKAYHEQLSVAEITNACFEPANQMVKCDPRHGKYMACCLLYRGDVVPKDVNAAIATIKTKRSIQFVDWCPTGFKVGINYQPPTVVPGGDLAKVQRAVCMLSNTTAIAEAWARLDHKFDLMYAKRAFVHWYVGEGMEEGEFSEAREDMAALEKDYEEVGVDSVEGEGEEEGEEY", "assay": "DARTS mass spectrometry of 293T lysate after ATG", "format": "binding", "details": "ATG 300 μM, pronase 1:1000, TBB6_HUMAN", "experimental": "as §1, §2"}, "[4]": {"target": "T3, Tubulin beta-3 chain (Homo sapiens, UniProt Q13509)", "T3 construct": "endogenous in cells; host or cells: 293T", "T3 sequence (Q13509 whole entry)": "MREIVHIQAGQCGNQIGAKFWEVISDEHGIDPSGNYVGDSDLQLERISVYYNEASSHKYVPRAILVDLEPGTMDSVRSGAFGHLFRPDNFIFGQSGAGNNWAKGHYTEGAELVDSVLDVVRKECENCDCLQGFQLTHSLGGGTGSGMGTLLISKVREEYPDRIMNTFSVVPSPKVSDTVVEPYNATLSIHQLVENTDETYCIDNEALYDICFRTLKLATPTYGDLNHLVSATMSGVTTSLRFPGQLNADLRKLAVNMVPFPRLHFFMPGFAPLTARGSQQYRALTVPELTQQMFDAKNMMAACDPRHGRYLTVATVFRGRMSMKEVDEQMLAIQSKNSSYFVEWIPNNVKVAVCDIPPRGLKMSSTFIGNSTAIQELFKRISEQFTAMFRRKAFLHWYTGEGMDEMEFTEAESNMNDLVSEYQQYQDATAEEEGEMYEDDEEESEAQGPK", "T3 sequence (P68363 whole entry partner)": "as the sequence (P68363 whole entry partner) above", "assay": "DARTS mass spectrometry of 293T lysate after ATG", "format": "binding", "details": "ATG 300 μM, pronase 1:1000, TBB3_HUMAN", "experimental": "as §1, §2"}, "[5]": {"test_system": "diabetic kidney disease mice", "assay": "Proteinuria in STZ-induced diabetic nephropathy mice", "format": "in vivo", "details": "40 mg/kg oral once daily", "experimental": "When the mice were 6 weeks of age, streptozotocin (STZ)-induced diabetic nephropathy models were started by tail vein injection. The specific method is: STZ in accordance with the amount of 50 mg/kg is injected in tail vein. 72 hours after the injection, determine whether the modeling is successful by determining the level of blood glucose and urine. When the blood glucose level is more than 16 mmol/L and urine glucose level is between +++ and ++++, the model was considered successful. After 10 weeks of STZ injection, ATG was orally administered at a dose of 40 mg/kg once daily. The control group was given the same volume of DMSO (dimethyl sulfoxide) orally. Treatment was for 8 weeks. Urine protein levels were measured in each group. The number of the mice in each group is 10 in Table 3. […] ACEI: angiotensin converting enzyme inhibitors; ARBs: angiotensin receptor blockers."}, "[6]": {"test_system": "NOX4 mRNA", "assay": "NOX4 mRNA expression in human immortal podocytes under high glucose (Realtime PCR)", "format": "cell-based", "details": "FIG. 7", "source_text": "The detection method of Western Blot and mRNA used in the present embodiment is a detection method commonly used by person skilled in the art, and the specific detection method is described in “Molecular Biology Laboratory Manual” (People's Military Medical Press, published in 2011 Jun. 1). 3.1 Western blot and Realtime PCR confirmed that ATG in human immortal podocytes can inhibit the overexpression of NOX4 caused by high glucose stimuli, see table 5 and FIG. 6. The expression of NOX4 in the total protein, membrane protein and mitochondrial protein of human immortal podocytes was detected in the experiment."}, "[7]": {"test_system": "NOX4", "assay": "NOX4 protein expression in glomeruli of STZ-eNOS−/− mice (Western Blot)", "format": "in vivo", "details": "for NOX4/GAPDH mean: glomeruli, Western Blot", "source_text": "The detection method of Western Blot and mRNA used in the present embodiment is a detection method commonly used by person skilled in the art, and the specific detection method is described in “Molecular Biology Laboratory Manual” (People's Military Medical Press, published in 2011 Jun. 1). 2. ATG can decrease NOX4's protein and mRNA expression in glomeruli of STZ-eNOS^−/− mice."}, "[8]": {"test_system": "PP2A", "assay": "PP2A activity in immortal podocytes (PP2A activity kit)", "format": "cell-based", "details": "1 hour", "experimental": "Immortal podocytes were stimulated with ATG at concentrations of 0, 1.0 μm, 3.3 μm, and 10 μm, and the stimulation time was 1 hour. The activity of PP2A was detected by PP2A activity kit (R & D systems, DYC3309-2)."}, "[9]": {"target": "T4, PP2AB (Homo sapiens, UniProt P62714)", "T4 construct": "endogenous in cells; host or cells: 293T", "T4 sequence (P62714 whole entry)": "as the sequence (P62714 whole entry, canonical isoform) above", "assay": "DARTS-western blot of ATG binding to PP2A in 293T cells", "details": "ATG 100, 300, 1000 μM, pronase 1:1000, FIG. 1", "experimental": "We used ATG to stimulate 293T cells. […] The applied ATG was formulated at 3 different concentrations: 100 μM, 300 μM, 1000 μM. So there are 5 groups of Western Blot: blank group (without addition of pronase), DMSO (pronase 1:1000), ATG 100 μM (pronase 1:1000), ATG 300 μM (pronase 1:1000), ATG 1000 μM (Pronase 1:1000). […] While pronase can digest proteins, it digests more ATG-unbinding proteins than ATG-binding proteins. […] This method is called DARTS.\nIn FIG. 1: DARTS-western blot confirmed the binding of ATG to PP2AB; PP2A had three structural units, and ATG bound to the catalytic unit. The catalyst unit of the protein called PP2AB, the gene called PPP2CB."}, "[10]": {"details": "ATG 300 μM, pronase 1:1000, PP2AB_HUMAN"}}, "data": [{"smiles": "COc1cc(C[C@H]2C(=O)OC[C@@H]2Cc2ccc(OC)c(OC)c2)ccc1O", "note": "[ATG, Arctigenin]", "values": [{"measurement": "mRNA expression of NOX4 gene in glomeruli", "setting": "[1]", "result": "significantly reduced"}, {"measurement": "Ratio (ATG/DMSO)", "setting": "[2]; [10]", "result": 7.8}, {"measurement": "Spectral Count (ATG)", "setting": "[2]; [10]", "result": 14}, {"measurement": "binding ratio of ATG and PP2A", "setting": "[2]; conclusion from mass spectrometry", "result": "high"}, {"measurement": "Ratio (ATG/DMSO)", "setting": "[3]", "result": 13.6}, {"measurement": "Spectral Count (ATG)", "setting": "[3]", "result": 25}, {"measurement": "Ratio (ATG/DMSO)", "setting": "[4]", "result": 25.6}, {"measurement": "Spectral Count (ATG)", "setting": "[4]", "result": 49}, {"measurement": "proteinuria (urine protein level)", "setting": "[5]; Model group - ATG (STZ mice), 0 week", "result": 0.98}, {"measurement": "proteinuria (urine protein level)", "setting": "[5]; Model group - ATG (STZ mice), 1 week", "result": 0.95}, {"measurement": "proteinuria (urine protein level)", "setting": "[5]; Model group - ATG (STZ mice), 2 week", "result": 1.10}, {"measurement": "proteinuria (urine protein level)", "setting": "[5]; Model group - ATG (STZ mice), 3 week", "result": 0.66}, {"measurement": "proteinuria (urine protein level)", "setting": "[5]; Model group - ATG (STZ mice), 4 week", "result": 0.66}, {"measurement": "proteinuria (urine protein level)", "setting": "[5]; Model group - ATG (STZ mice), 5 week", "result": 0.37}, {"measurement": "proteinuria (urine protein level)", "setting": "[5]; Model group - ATG (STZ mice), 6 week", "result": 0.22}, {"measurement": "proteinuria (urine protein level)", "setting": "[5]; Model group - ATG (STZ mice), 7 week", "result": 0.18}, {"measurement": "proteinuria (urine protein level)", "setting": "[5]; Model group - ATG (STZ mice), 8 week", "result": 0.18}, {"measurement": "proteinuria (urine protein level)", "setting": "[5]; Normal group - ATG, 0 week", "result": 0.12}, {"measurement": "proteinuria (urine protein level)", "setting": "[5]; Normal group - ATG, 1 week", "result": 0.11}, {"measurement": "proteinuria (urine protein level)", "setting": "[5]; Normal group - ATG, 2 week", "result": 0.18}, {"measurement": "proteinuria (urine protein level)", "setting": "[5]; Normal group - ATG, 3 week", "result": 0.12}, {"measurement": "proteinuria (urine protein level)", "setting": "[5]; Normal group - ATG, 4 week", "result": 0.16}, {"measurement": "proteinuria (urine protein level)", "setting": "[5]; Normal group - ATG, 5 week", "result": 0.18}, {"measurement": "proteinuria (urine protein level)", "setting": "[5]; Normal group - ATG, 6 week", "result": 0.12}, {"measurement": "proteinuria (urine protein level)", "setting": "[5]; Normal group - ATG, 7 week", "result": 0.14}, {"measurement": "proteinuria (urine protein level)", "setting": "[5]; Normal group - ATG, 8 week", "result": 0.13}, {"measurement": "effect on proteinuria", "setting": "[5]; STZ mice, 8 weeks", "result": "significantly reduces proteinuria"}, {"measurement": "effect on proteinuria compared with ACEI/ARBs", "setting": "[5]; STZ mice, 8 weeks", "result": "superior to the ACEI/ARBs"}, {"measurement": "overexpression of NOX4 mRNA induced by high glucose", "setting": "[6]", "result": "able to inhibit the overexpression of NOX4 mRNA"}, {"measurement": "NOX4/GAPDH mean", "setting": "[7]; Normal group-ATG", "result": 0.13}, {"measurement": "NOX4/GAPDH mean", "setting": "[7]; STZ-ATG", "result": 0.14}, {"measurement": "NOX4's protein expression in glomerular, versus untreated group", "setting": "[7]; STZ-eNOS mice administered with ATG", "result": "significantly less than that of the untreated group"}, {"measurement": "activity of PP2A, dependence on concentration", "setting": "[8]; ATG 0 to 10 μm", "result": "increased with the increase of ATG concentration"}, {"measurement": "PP2A activity values, mean", "setting": "[8]; ATG 1.0 μm", "result": 0.0268}, {"measurement": "PP2A activity values, mean", "setting": "[8]; ATG 3.3 μm", "result": 0.0279}, {"measurement": "PP2A activity values, mean", "setting": "[8]; ATG 10 μm", "result": 0.0484}, {"measurement": "PP2A binding (DARTS-western blot)", "setting": "[9]", "result": "PP2A binding increased with the increasing concentration of ATG"}]}]}
